Results from patent US6586478B2, “Methods and compositions for improving sleep” (Cellegy Canada, priority 2000, dated 2003).

Tests used:
[1] = system: sleep disorders including PLMS; assay: Example 1, Subject 1: person with sleep disorders including PLMS; assay type: in vivo, human; settings: Subject 1, history before the GTN patch
Experimental: The subject was a person with a history of sleep disorders including PLMS for at least 4 years. Over this period the subject had five visits to a sleep laboratory, which confirmed their diagnosis of PLMS, and through which various treatments were devised. These included drug therapies with PAXIL/WELLBUTRIN, CLOMIPRAMINE, IMOVANE, DESIPPAMINE, ZOLOFT, TEMAZEPAM, TRYPTAN, and FLUVOXAMINE.
At this point, the subject was administered a 1.65 cm^2 GTN patch as described above in reference to Table 4. The patch was applied just before retiring at night. This was repeated for three consecutive nights. […] On the fourth night, the subject applied a 1.1 cm^2 GTN patch, and on the fifth night, a 0.825 cm^2 GTN patch.

[2] = Plasma levels of nitroglycerin delivered from transdermal patches; assay type: in vivo
Experimental: (§1) 3M MINITRAN transdermal nitroglycerin patches of 10 cm^2 and 20 cm^2 areas deliver plasma levels of 102 pg/mL and between 129 pg/mL and 310 pg/mL, respectively. The 3.3 cm^2 patch, with a total loading of 9 mg of nitroglycerin in each patch, has a mean rate of drug delivery of about […]. The two smaller patches (1.65 cm^2 and 0.825 cm^2) used in the studies described herein had areas of one half and one fourth the 3.33 cm^2 patch. Based on the ratios of patch surface area and assuming linearity in the rates of drug delivery, the estimated rates of delivery and extrapolated values of plasma levels of nitroglycerin for the three low or microdose patches are given in Table 1.

[3] = Rate of drug delivery (release) from transdermal nitroglycerin patches; settings: after 8 hours, 0.83 cm^2 patch
Experimental: as §1
Nitroglycerin for the treatment of RLS, PLMS and sleep symptoms was provided in single dose transdermal patches packaged in individual foil pouches. Each single dose transdermal patch has a surface area of 0.83 cm^2, contains 2.25 mg of nitroglycerin, and releases the nitroglycerin at a rate of 0.025 mg/hour (0.75 mg/cm^2/24 hours). After 8 hours 85% of the nitroglycerin remains entrained in the adhesive substrate of the transdermal patch.

SMILES	success of earlier drug therapies in treating the symptoms of the sleep disorder [1]	also measured
CN(C)CCCN1c2ccccc2CCc2ccc(Cl)cc21 [CLOMIPRAMINE]	None of the drug therapies were successful	
CNCCCN1c2ccccc2CCc2ccccc21 [DESIPPAMINE]	None of the drug therapies were successful	
COCCCC/C(=N\OCCN)c1ccc(C(F)(F)F)cc1 [FLUVOXAMINE]	None of the drug therapies were successful	
CN1CCN(C(=O)OC2c3nccnc3C(=O)N2c2ccc(Cl)cn2)CC1 (centres unmarked) [IMOVANE]	None of the drug therapies were successful	
O=[N+]([O-])OCC(CO[N+](=O)[O-])O[N+](=O)[O-] [Nitroglycerin, nitroglycerin]		Plasma Level ([2]; 0.825 cm^2 patch, extrapolated from larger-size patches assuming linearity): 9^3 pg/mL; Plasma Level ([2]; 1.65 cm^2 patch, extrapolated from larger-size patches assuming linearity): 17^3 pg/mL; Plasma Level ([2]; 3.33 cm^2 patch, extrapolated from larger-size patches assuming linearity): 34^3 pg/mL; Plasma Level ([2]; 10 cm^2 patch): 102^1 pg/mL; nitroglycerin remaining entrained in the adhesive substrate of the patch [3]: 85%
CN1C(=O)C(O)N=C(c2ccccc2)c2cc(Cl)ccc21 (centres unmarked) [TEMAZEPAM, temazepam]	None of the drug therapies were successful	
CN[C@H]1CC[C@@H](c2ccc(Cl)c(Cl)c2)c2ccccc21 [ZOLOFT]	None of the drug therapies were successful	
